Laboratory results: US12275731B2, “Azaindole inhibitors of wild-type and mutant forms of LRRK2” (DANA-FARBER CANCER INSTITUTE, INC., priority 2018, dated 2025)

How the values were obtained:
Assay in all cases: KinomeScan profiling
Assay type in all cases: binding
[1] = target: T1, ABL1(H396P)-nonphosphorylated (Homo sapiens, UniProt P00519, H396P); settings: read-out: % control
T1 construct: purchased KinomeScan®
Procedure, shortened: (§1)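 Percent-of-control values derive from RLU, calculated as (test − positive)/(negative − positive) × 100, where DMSO defines 100% and a positive control compound defines 0%. Each compound was tested at 1 μM in the 468-kinase panel; sub-35% readings indicate activity.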

ACVR2A = target: T2, ACVR2A (Homo sapiens, UniProt P27037); settings: read-out: % control
T2 construct: purchased KinomeScan®
Procedure, shortened: as §1

ARK5 = target: T3, ARK5 (Homo sapiens, UniProt O60285); settings: ARK5, 1 μM; read-out: % control
T3 construct: purchased KinomeScan®
T3 sequence (O60285 1-661): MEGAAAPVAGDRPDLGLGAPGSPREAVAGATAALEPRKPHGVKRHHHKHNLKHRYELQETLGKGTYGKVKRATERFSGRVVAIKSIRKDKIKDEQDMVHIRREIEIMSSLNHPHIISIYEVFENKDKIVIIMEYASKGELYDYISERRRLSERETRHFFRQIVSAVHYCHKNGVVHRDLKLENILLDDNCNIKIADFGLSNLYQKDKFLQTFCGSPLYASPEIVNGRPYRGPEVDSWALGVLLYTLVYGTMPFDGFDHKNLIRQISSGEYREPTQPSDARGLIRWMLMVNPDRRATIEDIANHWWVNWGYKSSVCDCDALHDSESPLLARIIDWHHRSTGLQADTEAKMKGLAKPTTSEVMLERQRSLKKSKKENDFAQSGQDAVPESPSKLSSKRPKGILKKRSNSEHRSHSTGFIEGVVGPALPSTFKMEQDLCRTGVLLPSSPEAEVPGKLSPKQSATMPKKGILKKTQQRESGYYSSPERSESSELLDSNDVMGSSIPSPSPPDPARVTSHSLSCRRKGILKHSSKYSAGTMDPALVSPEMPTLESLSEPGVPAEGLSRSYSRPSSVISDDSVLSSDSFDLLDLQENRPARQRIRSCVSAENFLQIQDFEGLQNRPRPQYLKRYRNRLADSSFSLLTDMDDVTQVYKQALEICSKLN
Procedure, shortened: as §1

ERBB3 = ERBB3 (Homo sapiens, UniProt P21860); settings: ERBB3, 1 μM; read-out: % control
Procedure, shortened: as §1

MAK = target: T4, MAK (Homo sapiens, UniProt P20794); settings: read-out: % control
T4 sequence (P20794 1-623): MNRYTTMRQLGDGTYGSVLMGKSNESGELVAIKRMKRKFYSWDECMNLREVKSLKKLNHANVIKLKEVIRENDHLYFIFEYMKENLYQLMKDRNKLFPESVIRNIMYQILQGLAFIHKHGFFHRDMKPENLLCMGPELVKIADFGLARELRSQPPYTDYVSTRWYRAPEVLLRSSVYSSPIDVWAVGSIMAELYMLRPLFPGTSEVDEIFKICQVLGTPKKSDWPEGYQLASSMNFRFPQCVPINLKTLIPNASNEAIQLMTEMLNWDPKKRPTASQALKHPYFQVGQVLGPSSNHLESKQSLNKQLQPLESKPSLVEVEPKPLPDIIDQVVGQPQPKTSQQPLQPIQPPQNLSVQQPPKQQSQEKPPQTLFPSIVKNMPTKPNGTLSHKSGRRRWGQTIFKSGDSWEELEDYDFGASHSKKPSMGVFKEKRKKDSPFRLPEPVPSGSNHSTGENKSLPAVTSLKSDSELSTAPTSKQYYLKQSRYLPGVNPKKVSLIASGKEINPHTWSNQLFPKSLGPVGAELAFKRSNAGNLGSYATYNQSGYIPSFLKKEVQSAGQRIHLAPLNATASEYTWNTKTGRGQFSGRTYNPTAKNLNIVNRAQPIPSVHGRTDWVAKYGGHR
Procedure, shortened: as §1

NEK6 = NEK6 (Homo sapiens, UniProt Q9HC98); settings: NEK6, 1 μM; read-out: % control
Procedure, shortened: as §1

PIK4CB = target: T5, PIK4CB (Homo sapiens, UniProt Q9UBF8); settings: read-out: % control
T5 construct: purchased KinomeScan® (panel service)
Procedure, shortened: as §1

RIOK1 = target: T6, RIOK1 (Homo sapiens, UniProt Q9BRS2); settings: RIOK1, 1 μM; read-out: % control
T6 sequence (Q9BRS2 1-568): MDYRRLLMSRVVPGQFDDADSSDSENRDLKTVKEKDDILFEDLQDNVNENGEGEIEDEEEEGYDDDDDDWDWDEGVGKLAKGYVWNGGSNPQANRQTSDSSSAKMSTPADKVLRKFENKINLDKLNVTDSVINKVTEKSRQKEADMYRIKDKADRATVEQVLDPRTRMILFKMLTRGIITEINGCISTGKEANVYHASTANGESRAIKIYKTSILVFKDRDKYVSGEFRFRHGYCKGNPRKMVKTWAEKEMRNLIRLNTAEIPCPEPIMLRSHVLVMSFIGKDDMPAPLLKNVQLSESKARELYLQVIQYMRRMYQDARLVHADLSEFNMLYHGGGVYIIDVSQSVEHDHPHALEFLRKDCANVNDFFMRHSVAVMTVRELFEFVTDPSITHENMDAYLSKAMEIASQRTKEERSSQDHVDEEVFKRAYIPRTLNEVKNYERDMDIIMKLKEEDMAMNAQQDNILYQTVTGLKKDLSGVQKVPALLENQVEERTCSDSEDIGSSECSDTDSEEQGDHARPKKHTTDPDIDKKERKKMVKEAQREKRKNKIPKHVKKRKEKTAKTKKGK
Procedure, shortened: as §1

T2 sequence (P27037 20-513): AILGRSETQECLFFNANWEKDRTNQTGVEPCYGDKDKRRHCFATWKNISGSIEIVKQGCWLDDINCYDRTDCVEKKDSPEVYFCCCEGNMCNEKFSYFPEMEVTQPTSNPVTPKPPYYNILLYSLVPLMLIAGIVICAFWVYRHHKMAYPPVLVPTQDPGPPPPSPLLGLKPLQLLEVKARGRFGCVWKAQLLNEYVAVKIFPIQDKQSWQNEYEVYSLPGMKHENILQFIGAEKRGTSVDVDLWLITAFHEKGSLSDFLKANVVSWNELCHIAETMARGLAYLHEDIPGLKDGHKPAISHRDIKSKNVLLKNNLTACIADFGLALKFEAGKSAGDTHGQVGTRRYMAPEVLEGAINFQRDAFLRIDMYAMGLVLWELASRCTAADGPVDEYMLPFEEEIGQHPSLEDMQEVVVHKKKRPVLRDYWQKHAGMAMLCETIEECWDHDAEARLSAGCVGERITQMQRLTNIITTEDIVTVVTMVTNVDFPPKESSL
T5 sequence (Q9UBF8 whole entry): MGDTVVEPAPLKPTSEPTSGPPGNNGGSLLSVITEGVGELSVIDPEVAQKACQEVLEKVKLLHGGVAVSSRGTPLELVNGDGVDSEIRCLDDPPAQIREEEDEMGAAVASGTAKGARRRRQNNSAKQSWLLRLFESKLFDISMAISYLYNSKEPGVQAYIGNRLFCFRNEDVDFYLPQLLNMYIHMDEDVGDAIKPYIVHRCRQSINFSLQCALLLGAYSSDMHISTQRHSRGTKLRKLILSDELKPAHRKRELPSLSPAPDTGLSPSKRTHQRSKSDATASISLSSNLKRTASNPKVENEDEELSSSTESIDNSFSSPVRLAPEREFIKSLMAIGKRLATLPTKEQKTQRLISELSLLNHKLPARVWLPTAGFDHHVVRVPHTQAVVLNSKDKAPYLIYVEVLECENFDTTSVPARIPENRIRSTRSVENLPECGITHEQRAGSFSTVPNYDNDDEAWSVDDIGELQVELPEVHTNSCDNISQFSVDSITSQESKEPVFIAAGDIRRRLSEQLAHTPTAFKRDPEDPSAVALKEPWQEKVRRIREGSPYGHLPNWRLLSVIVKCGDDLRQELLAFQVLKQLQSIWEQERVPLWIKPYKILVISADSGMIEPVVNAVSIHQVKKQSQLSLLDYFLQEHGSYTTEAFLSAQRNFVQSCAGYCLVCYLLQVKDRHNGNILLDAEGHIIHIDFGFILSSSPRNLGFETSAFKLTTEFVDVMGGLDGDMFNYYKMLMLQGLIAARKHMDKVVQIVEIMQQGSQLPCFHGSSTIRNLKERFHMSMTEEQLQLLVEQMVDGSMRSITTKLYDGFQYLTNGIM
Sequence of ERBB3 (P21860 20-1342): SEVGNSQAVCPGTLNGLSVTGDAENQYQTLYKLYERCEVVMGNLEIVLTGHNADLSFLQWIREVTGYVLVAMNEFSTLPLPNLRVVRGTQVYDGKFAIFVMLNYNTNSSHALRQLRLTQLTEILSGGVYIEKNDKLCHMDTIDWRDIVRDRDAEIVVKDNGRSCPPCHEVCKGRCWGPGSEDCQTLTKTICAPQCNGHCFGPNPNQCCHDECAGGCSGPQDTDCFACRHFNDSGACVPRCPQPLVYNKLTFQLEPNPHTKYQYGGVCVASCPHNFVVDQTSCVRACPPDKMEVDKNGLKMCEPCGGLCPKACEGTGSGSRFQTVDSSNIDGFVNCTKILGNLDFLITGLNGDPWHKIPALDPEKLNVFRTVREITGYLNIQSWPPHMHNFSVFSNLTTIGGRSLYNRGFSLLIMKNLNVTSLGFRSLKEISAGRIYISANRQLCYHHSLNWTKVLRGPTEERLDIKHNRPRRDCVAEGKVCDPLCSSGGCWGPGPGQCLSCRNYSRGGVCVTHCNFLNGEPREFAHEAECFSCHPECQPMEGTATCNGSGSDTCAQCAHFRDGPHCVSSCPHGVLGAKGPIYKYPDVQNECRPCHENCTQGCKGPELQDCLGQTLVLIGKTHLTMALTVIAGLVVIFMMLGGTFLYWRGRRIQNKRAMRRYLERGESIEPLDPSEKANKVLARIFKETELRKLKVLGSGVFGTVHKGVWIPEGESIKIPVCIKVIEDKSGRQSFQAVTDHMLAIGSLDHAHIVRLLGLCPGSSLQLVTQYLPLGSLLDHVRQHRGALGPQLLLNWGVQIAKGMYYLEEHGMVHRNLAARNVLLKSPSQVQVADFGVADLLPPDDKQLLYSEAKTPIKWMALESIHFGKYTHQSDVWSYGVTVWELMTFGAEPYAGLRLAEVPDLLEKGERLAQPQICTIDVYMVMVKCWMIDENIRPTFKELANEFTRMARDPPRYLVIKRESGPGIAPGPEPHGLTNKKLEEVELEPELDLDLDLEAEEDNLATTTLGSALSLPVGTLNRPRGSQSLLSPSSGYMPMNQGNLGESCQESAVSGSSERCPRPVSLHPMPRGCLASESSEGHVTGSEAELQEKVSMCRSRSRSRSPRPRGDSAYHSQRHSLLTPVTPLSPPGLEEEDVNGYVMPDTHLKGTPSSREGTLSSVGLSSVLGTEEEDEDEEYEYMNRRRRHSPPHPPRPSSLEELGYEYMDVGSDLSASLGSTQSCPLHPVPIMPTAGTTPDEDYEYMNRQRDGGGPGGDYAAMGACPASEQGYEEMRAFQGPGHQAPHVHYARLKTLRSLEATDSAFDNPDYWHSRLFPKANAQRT
Sequence of NEK6 (Q9HC98 whole entry): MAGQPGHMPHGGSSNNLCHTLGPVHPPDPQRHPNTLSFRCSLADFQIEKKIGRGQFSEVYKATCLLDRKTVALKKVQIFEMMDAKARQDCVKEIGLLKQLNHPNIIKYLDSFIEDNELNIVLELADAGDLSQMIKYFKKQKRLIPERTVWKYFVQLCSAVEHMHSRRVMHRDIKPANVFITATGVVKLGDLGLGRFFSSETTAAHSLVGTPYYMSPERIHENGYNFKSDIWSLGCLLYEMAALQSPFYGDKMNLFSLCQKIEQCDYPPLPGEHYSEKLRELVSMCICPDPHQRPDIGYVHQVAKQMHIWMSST

O=C(c1ccc(-c2cnc3[nH]cc(Cl)c3c2NC2CCCC2)cc1)N1CCC(N2CCOCC2)CC1 [Compound 101, (4-(3-chloro-4-(cyclopentylamino)-1H-pyrrolo[2,3-b]pyridin-5-yl)phenyl)(4-morpholinopiperidin-1-yl)methanone]
remaining binding at 1 µM [1]: 100%
remaining binding at 1 µM (ACVR2A): 95%
remaining binding at 1 µM (ARK5): 67%
remaining binding at 1 µM (ERBB3): 55%
remaining binding at 1 µM (MAK): 87%
remaining binding at 1 µM (NEK6): 100%
remaining binding at 1 µM (PIK4CB): 100%
remaining binding at 1 µM (RIOK1): 11%

CNc1c(-c2cnn([C@H]3CCN(C(C)=O)C[C@@H]3F)c2)cnc2[nH]cc(Cl)c12 [Compound 77, 1-((3S,4S)-4-(4-(3-chloro-4-(methylamino)-1H-pyrrolo[2,3-b]pyridin-5-yl)-1H-pyrazol-1-yl)-3-fluoropiperidin-1-yl)ethan-1-one]
remaining binding at 1 µM [1]: 36%
remaining binding at 1 µM (ACVR2A): 99%
remaining binding at 1 µM (ARK5): 86%
remaining binding at 1 µM (ERBB3): 88%
remaining binding at 1 µM (MAK): 100%
remaining binding at 1 µM (NEK6): 92%
remaining binding at 1 µM (PIK4CB): 59%
remaining binding at 1 µM (RIOK1): 0%

CNc1c(-c2ccc(C(=O)N3CCC(N4CCOCC4)CC3)cc2)cnc2[nH]cc(Cl)c12 [Compound 96, (4-(3-chloro-4-(methylamino)-1H-pyrrolo[2,3-b]pyridin-5-yl)phenyl)(4-morpholinopiperidin-1-yl)methanone]
remaining binding at 1 µM [1]: 76%
remaining binding at 1 µM (ACVR2A): 97%
remaining binding at 1 µM (ARK5): 64%
remaining binding at 1 µM (ERBB3): 86%
remaining binding at 1 µM (MAK): 97%
remaining binding at 1 µM (NEK6): 88%
remaining binding at 1 µM (PIK4CB): 58%
remaining binding at 1 µM (RIOK1): 0.15%
